Test results taken from patent publication US5300501A, “Peptidyl derivatives” (Celltech Limited, priority 1990, dated 1994).

Experiments:
Format in all cases: biochemical
Collagenase = molecular target: T1, Collagenase (Homo sapiens, UniProt P03956); assay: Enzyme inhibition assay (peptide substrate Dnp-Pro-Leu-Gly-Leu-Trp-Ala-D-Arg-NH2, Trp fluorescence), collagenase; conditions: pH 7.5, overnight, Ki (app) assumed to approximate true Ki
T1 sequence (P03956 100-469): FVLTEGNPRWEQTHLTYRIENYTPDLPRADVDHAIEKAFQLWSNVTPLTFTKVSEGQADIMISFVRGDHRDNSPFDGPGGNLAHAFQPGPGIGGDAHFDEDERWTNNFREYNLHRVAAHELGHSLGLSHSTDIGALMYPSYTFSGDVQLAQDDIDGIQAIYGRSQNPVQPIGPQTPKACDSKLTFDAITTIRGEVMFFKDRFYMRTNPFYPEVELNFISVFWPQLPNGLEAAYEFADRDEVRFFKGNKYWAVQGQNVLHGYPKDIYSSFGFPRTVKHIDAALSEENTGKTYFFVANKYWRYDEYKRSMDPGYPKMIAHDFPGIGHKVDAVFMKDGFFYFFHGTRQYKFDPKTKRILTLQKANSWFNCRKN
From the text: (§1) The enzymes cleave at the Gly-Leu bond which can be followed fluorimetrically by measuring the increase in Trp fluorescence emission associated with the removal of the quenching dinitrophenol (Dnp) group.
(§2) Ki values can be established using the equation for tight-being inhibition: [formula] where Vo is the initial rate of reaction in the absence of inhibitor, Vi is the initial rate in the presence of inhibitor, [E] is the total enzyme concentration and [I] the total inhibitor concentration in the reaction mixture.
(§3) For stromelysin and collagenase, Ki (app) was assumed to approximate to the true Ki as [S]<<Km for the substrate hydrolysis. For gelatinase the Ki was determined by performing the analyses at several substrate concentrations. A plot of Ki (app) vs. [S] then gave the true Ki as the value of the y-axis intercept.

Gelatinase-72KD = molecular target: T2, Gelatinase-72KD (Homo sapiens, UniProt P08253); assay: Enzyme inhibition assay (peptide substrate Dnp-Pro-Leu-Gly-Leu-Trp-Ala-D-Arg-NH2, Trp fluorescence), gelatinase; conditions: pH 7.5, overnight; true Ki from plot of Ki (app) vs. [S], y-axis intercept
T2 sequence (P08253 110-660): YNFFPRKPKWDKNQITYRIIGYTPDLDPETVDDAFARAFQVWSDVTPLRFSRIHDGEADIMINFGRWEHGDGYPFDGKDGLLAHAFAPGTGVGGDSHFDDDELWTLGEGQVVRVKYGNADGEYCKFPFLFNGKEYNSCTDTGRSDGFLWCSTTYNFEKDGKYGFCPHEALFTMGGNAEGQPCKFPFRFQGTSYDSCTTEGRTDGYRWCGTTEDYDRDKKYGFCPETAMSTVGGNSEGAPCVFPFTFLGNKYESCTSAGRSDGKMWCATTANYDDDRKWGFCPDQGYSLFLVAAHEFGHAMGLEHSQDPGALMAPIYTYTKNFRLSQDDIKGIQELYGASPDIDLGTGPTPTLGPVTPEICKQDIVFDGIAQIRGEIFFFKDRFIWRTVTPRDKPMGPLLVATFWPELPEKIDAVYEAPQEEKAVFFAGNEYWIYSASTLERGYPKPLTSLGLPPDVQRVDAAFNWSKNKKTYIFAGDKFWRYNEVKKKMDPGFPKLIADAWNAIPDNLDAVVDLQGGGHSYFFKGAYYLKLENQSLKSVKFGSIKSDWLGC
From the text: as §1, §2, §3

Stromelysin-1 = Stromelysin-1 (Homo sapiens, UniProt P08254); assay: Enzyme inhibition assay (peptide substrate Dnp-Pro-Leu-Gly-Leu-Trp-Ala-D-Arg-NH2, Trp fluorescence), stromelysin; conditions: pH 7.5, overnight, Ki (app) assumed to approximate true Ki
From the text: as §1, §2, §3

[1] = value printed in μM in the cell

Sequence of Stromelysin-1 (P08254 100-477, species assumed): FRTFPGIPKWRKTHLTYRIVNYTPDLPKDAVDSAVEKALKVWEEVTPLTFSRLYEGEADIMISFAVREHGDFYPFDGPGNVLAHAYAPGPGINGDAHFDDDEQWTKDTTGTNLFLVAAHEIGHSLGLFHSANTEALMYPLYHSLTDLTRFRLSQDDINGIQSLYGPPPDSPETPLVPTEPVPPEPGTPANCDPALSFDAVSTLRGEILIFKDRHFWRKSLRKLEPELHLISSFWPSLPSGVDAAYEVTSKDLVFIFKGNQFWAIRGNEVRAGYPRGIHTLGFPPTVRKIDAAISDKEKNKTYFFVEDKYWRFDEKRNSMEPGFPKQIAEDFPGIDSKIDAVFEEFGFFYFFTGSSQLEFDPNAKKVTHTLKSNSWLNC

| Ki (Collagenase) [µM] | Ki (Gelatinase-72KD) [nM] | Ki (Stromelysin-1) [µM] | SMILES | Ki (Collagenase; [1]) [µM] | Ki (Stromelysin-1; [1]) [µM] |
| --- | --- | --- | --- | --- | --- |
| 0.15 | 0.025 | 0.00592 | NS(=O)(=O)c1ccc(CCNC(=O)[C@H](CC2CCCCC2)NC(=O)[C@H](CCCc2ccccc2)CC(=O)NO)cc1 [Example 6, [4-(N-Hydroxyamino)-2R-phenylpropylsuccinyl]-L-β-cyclohexyalanine-N-(2-(p-sulphonamidophenyl)ethyl) amide] | – | – |
| 0.21 | 0.14 | 0.0248 | O=C(C[C@@H](CCCc1ccccc1)C(=O)N[C@@H](CC1CCCCC1)C(=O)NCCCN1CCOCC1)NO [Example 12, [4-(N-Hydroxyamino)-2R-phenylpropylsuccinyl]-L-β-cyclohexylalanine-N-[3(4-morpholinyl)propyl] amide] | – | – |
| – | – | 0.842 | O=C(O)C[C@@H](CCCc1ccccc1)C(=O)N[C@@H](CC1CCCCC1)C(=O)NCCc1ccccc1 [Example 15, [4-Hydroxy-2(R)-(3-phenylpropyl)succinnyl]-L-β-cyclohexylalanine-(N-2-phenylethyl) amide] | – | – |

| SMILES | Ki (Collagenase) [µM] | Ki (Gelatinase-72KD) [nM] | Ki (Stromelysin-1) [µM] | Ki (Collagenase; [1]) [µM] | Ki (Stromelysin-1; [1]) [µM] |
| --- | --- | --- | --- | --- | --- |
| COC(=O)CCNC(=O)[C@H](CC1CCCCC1)NC(=O)[C@H](CCCc1ccccc1)CC(=O)O [Example 16, [4-Hydroxy-2(R)-(3-phenylpropyl)succinyl]-L-β-cyclohexylalanine-β-alanine methyl ester] | – | 6 | – | 57 | 1.47 |
